Values joined by “and” are separate entries in the source; they are usually repeats but may differ in a detail not shown here. Identical values can stand only once. “Also recorded” adds a separate entry of the source.
How the values were obtained:
[1] = Lipophilicity as RM values by RP-TLC; format: physicochemical; parameters: key: RM = log[(1/Rf) − 1]; settings: MeOH:H2O (70/30), average of at least 5 measurements
Experimental: Reversed phase TLC (RP-TLC) was performed on silica gel plates impregnated with 5% (v/v) liquid paraffin in light petroleum ether. The mobile phase was a methanol/water mixture (70/30, v/v). The plates were developed in closed chromatography tanks saturated with the mobile phase at 24 °C. Spots were detected under UV light. RM values were determined from the corresponding Rf values (from five individual measurements) using the equation RM = log[(1/Rf) − 1] (Table 1).

[2] = Inhibition of linoleic acid lipid peroxidation (AAPH); settings: 100 μM; AAPH-induced oxidation of sodium linoleate, pH 7.4, 37 °C; na = no activity
Experimental: Production of conjugated diene hydro peroxide by oxidation of sodium linoleate in an aqueous solution was monitored at 234 nm. AAPH was used as a free radical initiator. Ten microliters of the 16 mM sodium linoleate solution was added to the UV cuvette containing 930 μL of 0.05 M phosphate buffer, pH 7.4 prethermostated at 37 °C. The oxidation reaction was initiated at 37 °C under air by the addition of 50 μL of 40 mM AAPH solution. 10 μL of the appropriate solutions of the tested compounds were added in the mixture. Lipid oxidation was measured in the presence of the same level of DMSO. The rate of oxidation at 37 °C was monitored by recording the increase in absorption at 234 nm caused by conjugated diene hydro peroxides [24].

soybean lipoxygenase = molecular target: T1, soybean lipoxygenase (Glycine max, UniProt P08170); assay: Soybean lipoxygenase inhibition in vitro (UV-based enzyme assay); format: biochemical; settings: for IC50: sodium linoleate substrate, tris buffer pH 9, read-out: IC50 μΜ, inhibition of soybean lipoxygenase
T1 construct: purchased Sigma Chemical, Co. (St. Louis, MO, USA)
T1 sequence (P08170 1-839): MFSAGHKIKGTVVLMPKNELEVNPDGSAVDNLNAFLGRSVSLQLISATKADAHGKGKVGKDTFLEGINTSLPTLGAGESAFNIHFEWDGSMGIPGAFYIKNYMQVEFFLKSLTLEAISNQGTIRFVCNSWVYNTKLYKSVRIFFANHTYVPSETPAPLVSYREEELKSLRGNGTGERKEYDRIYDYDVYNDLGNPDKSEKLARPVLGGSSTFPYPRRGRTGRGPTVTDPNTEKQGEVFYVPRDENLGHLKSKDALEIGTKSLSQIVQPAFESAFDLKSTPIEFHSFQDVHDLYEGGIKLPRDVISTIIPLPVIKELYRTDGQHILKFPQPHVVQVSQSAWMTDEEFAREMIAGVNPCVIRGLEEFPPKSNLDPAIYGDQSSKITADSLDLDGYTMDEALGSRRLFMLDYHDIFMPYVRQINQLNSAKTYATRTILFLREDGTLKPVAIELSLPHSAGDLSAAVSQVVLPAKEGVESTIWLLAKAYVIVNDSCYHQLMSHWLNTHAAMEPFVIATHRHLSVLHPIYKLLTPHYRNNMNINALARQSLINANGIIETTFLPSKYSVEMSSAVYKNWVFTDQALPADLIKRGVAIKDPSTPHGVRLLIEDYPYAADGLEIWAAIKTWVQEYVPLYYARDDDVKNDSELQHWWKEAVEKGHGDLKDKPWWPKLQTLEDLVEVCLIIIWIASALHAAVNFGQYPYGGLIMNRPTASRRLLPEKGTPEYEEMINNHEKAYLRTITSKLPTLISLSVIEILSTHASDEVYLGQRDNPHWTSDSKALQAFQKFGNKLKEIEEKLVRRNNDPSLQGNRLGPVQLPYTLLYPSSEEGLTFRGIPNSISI
Experimental: The tested compounds were dissolved in DMSO (10 μL) and incubated at room temperature with sodium linoleate (100 mM) and 0.2 mL of enzyme solution (1/9 × 10^−4 w/v in saline) in buffer pH 9 (tris) at room temperature (final volume 1 mL). […] Several concentrations were used for the determination of IC50 values.

trypsin = molecular target: T2, trypsin (Bos taurus, UniProt P00760); assay: Inhibition of trypsin induced proteolysis in vitro (modified Kunitz method); format: biochemical, bovine; settings: for IC50: bovine albumin substrate, pH 7.6, 37 °C, read-out: IC50 μΜ, inhibition of trypsin induced proteolysis
T2 construct: purchased Sigma Chemical, Co. (St. Louis, MO, USA); host or cells: bovine pancreas
T2 sequence (P00760 24-246): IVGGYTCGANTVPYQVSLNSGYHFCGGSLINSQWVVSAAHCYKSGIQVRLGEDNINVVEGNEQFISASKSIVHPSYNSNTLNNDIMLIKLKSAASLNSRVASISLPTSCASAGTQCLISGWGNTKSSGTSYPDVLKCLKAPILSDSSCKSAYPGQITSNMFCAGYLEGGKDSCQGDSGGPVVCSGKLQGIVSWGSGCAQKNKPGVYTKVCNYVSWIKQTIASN
Experimental: All chemicals, solvents, chemical and biochemical reagents were of analytical grade and purchased from commercial sources (Merck, Merck KGaA, Darmstadt, Germany, Fluka Sigma-Aldrich Laborchemikalien GmbH, Hannover, Germany, Alfa Aesar, Karlsruhe, Germany and Sigma, St. Louis, MO, USA). Soybean lipoxygenase, pancreatic bovine trypsin, sodium linoleate, 2,2-azobis (2-amidinopropane) dihydrochloride (AAPH) were obtained from Sigma Chemical, Co. (St. Louis, MO, USA).
The test was carried out according to a modified Kunitz method. Bovine albumin was used as substrate for trypsin [24]. The reaction mixture consisted of 200 μL of 0.075 mg/mL trypsin and 780 μL of phosphate buffer pH 7.6 (including the tested compounds (20 μL in DMSO, final concentration 100 μM) preincubated at 37 °C for 20 min and then 1 mL of albumin (stock solution 6 g/100 mL in phosphate buffer 0.1 M, pH 7.6) was added and incubated at 37 °C for 30 min. After the incubation 1 mL of 5% trichloroacetic acid was added to the incubated solution to stop the enzyme’s reaction and allowed to set at room temperature for 1 h. Then the solution was filtered and the absorption of the filtered solution was measured at 280 nm.

[3] = system: L929 mouse fibroblasts cells; assay: Cytotoxicity, propidium iodide fluorescence method; format: cell-based; settings: 24 h incubation, 1–100 μM
Experimental: The cytotoxicity of the synthesized derivatives was determined using the propidium iodide (PI) fluorescence method in the presence of different concentrations (1–100 μM) of these compounds. L929 mouse fibroblasts cells were used in this work since they have been previously used in the study of the pharmacological effects of antioxidant and anti-inflammatory agents. The cytotoxicity results of the new compounds against normal cells (such as the L929 fibroblasts) would give useful information as only non-cytotoxic compounds should be further evaluated as potential antioxidant drugs. The results are presented in Figure 1 in the form of the % cell survival values as propidium iodide % (PI)—values PI% for the examined compounds.
L929 mouse fibroblasts cells were cultured in EMEM supplemented with 10% horse serum, 2 mM L-glutamine, 1 mM sodium pyruvate, 0.1 mM nonessential amino acids, 1.5 g/L sodium bicarbonate and 100 μg/mL penicillin–streptomycin at 37 °C in a humidified atmosphere with 5% CO2. L929 cells were plated into 24-well plates at a density […] and allowed to attach and grow for 24 h. […] After 24 h incubation, the supernatant was removed and the cells were washed with PBS. […] The PI fluorescence (cell death) was determined with flow cytometry, FACS Calibur, Coulter Epics XL-MCL (Beckman, Inc., Mount Holly, NJ, USA). […]

| RM (±SD) [1] | IC50 (soybean lipoxygenase) [µM] | Anti-proteolytic activity, trypsin inhibition (in words) (trypsin) | IC50 (trypsin) [µM] | Soybean LOX inhibition (in words) (soybean lipoxygenase) | inhibition at 100 µM (soybean lipoxygenase; 100 μM, na = no activity under the reported experimental conditions, read-out: LOX Inh. % @ 100 μΜ) [%] | inhibition at 100 µM (trypsin; 100 μM, na = no activity under the reported experimental conditions, read-out: Trypsin Inh. % @100 μM) [%] | melting point [°C] | Molecule | ILP% @100 μΜ (% inhibition of lipid peroxidation) [2] | Cytotoxicity on L929 cells as PI% values (in words) [3] |
| --- | --- | --- | --- | --- | --- | --- | --- | --- | --- | --- |
|  | 22.5 | did not present any activity |  |  |  |  |  | CC(C)NCC(O)COc1ccc(CC(N)=O)cc1 (stereo not shown) [Atenolol, atenolol, reference compound] |  |  |
| −0.485 and −0.485 ± 0.044 |  |  |  |  |  |  |  | O=C(O)/C=C/c1ccccc1 [Compound 1, cinnamic acid] | 78% |  |
| 0.1402 ± 0.0227 |  |  | 100 | low or no activity | 20 |  |  | O=C(/C=C/c1ccccc1)OCCN(Cc1ccccc1)C(=O)/C=C/c1ccccc1 [Compound 1f, 2-(N-benzylcinnamamido) ethyl cinnamate] | inactive |  |
|  |  |  |  |  |  | 53.6 |  | O=C(O)c1ccccc1O [Salicylic acid, reference compound] |  |  |
| −0.841 and −0.841 ± 0.0014 | 10 |  | 1 |  |  |  | 176 to 178 | COc1ccc(/C=C/C(=O)N(CC(O)COc2ccc(CC(N)=O)cc2)C(C)C)cc1OC (stereo not shown) [Compound 3a] | 86% |  |
|  |  |  |  |  |  |  |  | Cc1c(C)c2c(c(C)c1O)CCC(C)(C(=O)O)O2 (stereo not shown) [Trolox, reference compound] | 93% |  |
| −0.720 and −0.720 ± 0.012 | 66 |  | 0.315 |  |  |  | 102 to 105 | CC(C)N(CC(O)COc1ccc(CC(N)=O)cc1)C(=O)/C=C/c1ccccc1 (stereo not shown) [Compound 1a] | 97% |  |
|  | 6 |  | 2.75 |  |  |  |  | CC(C)N(C[C@H](O)COc1cccc2ccccc12)C(=O)/C=C/c1cccc(Oc2ccccc2)c1 [Compound S-2b, (S)-N-(2-hydroxy-3-(naphth-1-yloxy)propyl)-N-isopropyl-3-(3-phenoxyphenyl) acrylamide] | 86% |  |
| −0.374 ± 0.0176 | 100 |  |  | low or no activity |  |  |  | (E)-2-(benzylamino) ethyl 3-phenylacrylate [Compound 1e] |  |  |
| 0.0889 ± 0.002 | 27.5 |  |  | low or no activity |  |  | 210 to 212 | O=C(/C=C/c1ccccc1)Oc1cccc2ccccc12 [Compound 1d, (E)-naphthalen-1-yl cinnamate] | inactive |  |
| 0.907 and 0.907 ± 0.008 | 6 |  | 0.425 |  |  |  | 118 to 120 | CC(C)N(CC(O)COc1cccc2ccccc12)C(=O)/C=C/c1cccc(Oc2ccccc2)c1 (stereo not shown) [Compound 2b, (E)N-(2-hydroxy-3-(naphthalen-1-yloxy)propyl)-N-isopropyl-3-(3phenoxyphenyl) acrylamide] | 84% |  |
| 0.0819 and 0.0819 ± 0.01 | 10 |  | 0.516 |  |  |  | 172 to 174 | COc1ccc(/C=C/C(=O)N(CC(O)COc2cccc3ccccc23)C(C)C)cc1OC (stereo not shown) [Compound 3b, (E)-3-(3,4-dimethoxyphenyl)-N-(2-hydroxy-3-(naphthalen-1-yloxy)propyl)-N-isopropylacrylamide] | 71% |  |

| Molecule | RM (±SD) [1] | IC50 (soybean lipoxygenase) [µM] | Anti-proteolytic activity, trypsin inhibition (in words) (trypsin) | IC50 (trypsin) [µM] | Soybean LOX inhibition (in words) (soybean lipoxygenase) | inhibition at 100 µM (soybean lipoxygenase; 100 μM, na = no activity under the reported experimental conditions, read-out: LOX Inh. % @ 100 μΜ) [%] | inhibition at 100 µM (trypsin; 100 μM, na = no activity under the reported experimental conditions, read-out: Trypsin Inh. % @100 μM) [%] | melting point [°C] | ILP% @100 μΜ (% inhibition of lipid peroxidation) [2] | Cytotoxicity on L929 cells as PI% values (in words) [3] |
| --- | --- | --- | --- | --- | --- | --- | --- | --- | --- | --- |
| 3,4-dimethoxycaffeic acid [Compound 3] | −0.869 ± 0.0614 |  |  |  |  |  |  |  | 86% |  |
| O=C(O)/C=C/c1cccc(Oc2ccccc2)c1 [Compound 2, (E)-3-(3-phenoxyphenyl)acrylic acid] | −0.41 ± 0.016 | 66 |  |  |  |  |  |  | 84% |  |
| CC(C)N(CC(O)COc1cccc2ccccc12)C(=O)/C=C/c1ccccc1 (stereo not shown) [Compound 1b, (E)-N-(2-hydroxy-3-(naphthalen-1-yloxy)propyl)-N-isopropylcinnamamide] | 0.411 and 0.411 ± 0.061 | 50 |  | 10 |  |  |  |  | 69% | remarkable cytotoxicity |
| CC(C)N(CC(O)COc1ccc(CC(N)=O)cc1)C(=O)/C=C/c1cccc(Oc2ccccc2)c1 (stereo not shown) [Compound 2a] | 0.128 ± 0.0204 | 35 |  | 0.325 |  |  |  |  | 86% | remarkable cytotoxicity |
| O=C(/C=C/c1ccccc1)OC12CC3CC(CC(C3)C1)C2 [Compound 1c, (E)-adamantan-1-yl cinnamate] | 0.911 and 0.911 ± 0.0112 |  |  | 49 | low or no activity; also recorded: inactive |  |  | 183 to 185 |  |  |
